A short description of data set [1]: Half life in pig liver at 12 uM. It is filed as ADME, organism-based, Sus scrofa. Particulars: pig liver (preparation not specified).
A short description of data set [2]: Half life in pig liver at 50 uM. It is filed as ADME, organism-based, Sus scrofa. Particulars: pig liver (preparation not specified).

For `C=CCNCCCCNC`, the half-life (usually the time needed for the level to fall by half in the phase considered) at 12 µM in data set [1] worked out at 12 min.

In the case of `C=CCNCCCCN`, the half-life at 50 µM in data set [2] amounted to 35 min.

The record behind these values is ChEMBL document CHEMBL1123077, “N-2,3-Butadienyl-1,4-butanediamine derivatives: potent irreversible inactivators of mammalian polyamine oxidase” (J Med Chem, 1985).
